Data as given in patent US20220363665A1, “QUINOLINE COMPOUNDS FOR THE TREATMENT OF AUTOIMMUNE DISEASE” (Hoffmann-La Roche Inc., priority 2019, published 2022).

Target: T1, human TLR8 (Homo sapiens, UniProt Q9NR97)
T1 construct: host or cells: HEK293 (HEK-Blue hTLR8)
T1 sequence (Q9NR97 27-1041): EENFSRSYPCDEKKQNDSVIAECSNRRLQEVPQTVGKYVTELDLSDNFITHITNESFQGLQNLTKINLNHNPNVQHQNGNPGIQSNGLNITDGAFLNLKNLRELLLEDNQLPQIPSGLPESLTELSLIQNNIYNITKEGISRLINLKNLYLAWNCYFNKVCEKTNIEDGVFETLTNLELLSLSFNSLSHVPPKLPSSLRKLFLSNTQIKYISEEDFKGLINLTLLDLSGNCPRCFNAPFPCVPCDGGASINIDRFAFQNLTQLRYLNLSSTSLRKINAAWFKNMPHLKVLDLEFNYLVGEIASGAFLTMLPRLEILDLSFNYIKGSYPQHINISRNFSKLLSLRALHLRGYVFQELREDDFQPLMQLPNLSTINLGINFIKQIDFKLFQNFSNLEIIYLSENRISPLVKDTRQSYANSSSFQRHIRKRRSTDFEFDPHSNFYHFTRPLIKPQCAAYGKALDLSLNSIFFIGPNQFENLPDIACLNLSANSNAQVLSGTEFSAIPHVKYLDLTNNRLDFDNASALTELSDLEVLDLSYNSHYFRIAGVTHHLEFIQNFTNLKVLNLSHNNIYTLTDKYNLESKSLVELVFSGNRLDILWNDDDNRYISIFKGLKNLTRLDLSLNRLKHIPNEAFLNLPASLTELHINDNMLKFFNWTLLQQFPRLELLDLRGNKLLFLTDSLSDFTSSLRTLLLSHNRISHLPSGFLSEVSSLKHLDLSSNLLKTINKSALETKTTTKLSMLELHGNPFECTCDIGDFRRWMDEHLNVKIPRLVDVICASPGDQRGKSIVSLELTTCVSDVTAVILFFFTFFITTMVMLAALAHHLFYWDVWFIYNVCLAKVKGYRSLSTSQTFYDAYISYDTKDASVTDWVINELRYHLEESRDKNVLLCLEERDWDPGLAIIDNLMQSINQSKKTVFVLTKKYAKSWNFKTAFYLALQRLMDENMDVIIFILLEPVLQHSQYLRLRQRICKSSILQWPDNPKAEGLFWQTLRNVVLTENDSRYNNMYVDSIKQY
Assay: HEK293-Blue-hTLR-8 cells assay (SEAP reporter, R848 stimulation)
Assay type: cell-based
Conditions: HEK293-Blue-hTLR8 cells, R848, 20 hrs
Experimental: The following tests were carried out in order to determine the activity of the compounds of formula (I) in HEK293-Blue-hTLR-7/8/9 cells assay.
HEK293-Blue-hTLR-8 Cells Assay:
A stable HEK293-Blue-hTLR-8 cell line was purchased from InvivoGen (Cat. #: hkb-htlr8, San Diego, Calif., USA). These cells were originally designed for studying the stimulation of human TLR8 by monitoring the activation of NF-κB. A SEAP (secreted embryonic alkaline phosphatase) reporter gene was placed under the control of the IFN-β minimal promoter fused to five NF-κB and AP-1-binding sites. The SEAP was induced by activating NF-κB and AP-1 via stimulating HEK-Blue hTLR8 cells with TLR8 ligands. Therefore the reporter expression was declined by TLR8 antagonist under the stimulation of a ligand, such as R848, for incubation of 20 hrs. The cell culture supernatant SEAP reporter activity was determined using QUANTI-Blue™ kit (Cat #. rep-qbl, Invivogen, San Diego, Calif., USA) at a wavelength of 640 nm, a detection medium that turns purple or blue in the presence of alkaline phosphatase.
HEK293-Blue-hTLR8 cells were incubated at a density of 250,000˜450,000 cells/mL in a volume of 170 μL in a 96-well plate in Dulbecco's Modified Eagle's medium (DMEM) containing 4.5 g/L glucose, 50 U/mL penicillin, […], […], 2 mM L-glutamine, 10% (v/v) heat-inactivated fetal bovine serum with addition of 20 μL test compound in a serial dilution in the presence of final DMSO at 1% and 10 μL of 60 μM R848 in above DMEM, perform incubation under 37° C. in a CO2 incubator for 20 hrs. Then 20 μL of the supernatant from each well was incubated with 180 μL Quanti-blue substrate solution at 37° C. for 2 hrs and the absorbance was read at 620˜655 nm using a spectrophotometer. The signalling pathway that TLR8 activation leads to downstream NF-KB activation has been widely accepted, and therefore similar reporter assay was modified for evaluating TLR8 antagonist.

Work on `C[C@@H]1CN(c2ccc(C(F)(F)F)c3ncccc23)C[C@H](C(=O)NC[C@@H]2C[C@@H](F)CN2)O1` [Example 27, (2R,6R)-N-[[(2S,4R)-4-fluoropyrrolidin-2-yl]methyl]-6-methyl-4-[8-(trifluoromethyl)-5-quinolyl]morpholine-2-carboxamide] yielded an IC50 of 21 nM.
